Laboratory results reported in the supplement of paper PMC10883282.
± gives the standard deviation of the averaged measurements.

System: SW1353
Assay: relative viability vs DMSO control (72 h) (fraction); higher = more viable cells
How it was run: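 Densities for seeding sarcoma cell lines into 384-well plates were set to give 80–90% confluence. After 24 h, 2.5 µl of serially diluted compound from source plates of 10 mM to 0.0002 mM went in, and plates stayed 72 h at 37 °C in 5% CO2 with 0.1% DMSO vehicle and a 5 µM positive control. Percent growth from ATPLite readings, averaged over up to triplicate wells, served as relative viability, rescaled so 1 means full and 0 means none.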

| Compound | relative viability (0.00017 µM) | relative viability (0.00051 µM) | relative viability (0.00152 µM) | relative viability (0.00457 µM) | relative viability (0.01372 µM) | relative viability (0.04115 µM) | relative viability (0.1235 µM) | relative viability (0.3704 µM) | relative viability (1.111 µM) | relative viability (3.333 µM) | relative viability (10 µM) | relative viability (2 pM) | relative viability (5 pM) | relative viability (15 pM) | relative viability (50 pM) | relative viability (0.00014 µM) | relative viability (0.00041 µM) | relative viability (0.0012 µM) | relative viability (0.0037 µM) | relative viability (0.011 µM) | relative viability (200 fM) | relative viability (600 fM) |
| --- | --- | --- | --- | --- | --- | --- | --- | --- | --- | --- | --- | --- | --- | --- | --- | --- | --- | --- | --- | --- | --- | --- |
| CC(C)NC(=O)C1CCC(n2c(NC(=O)c3ccc(F)cc3)nc3ccc(CN4CCC(C(C)(C)O)CC4)cc32)CC1 (stereo not drawn) [Belizatinib] | 1.02 ± 0.03 | 0.987 ± 0.045 | 1.02 ± 0.014 | 1.05 ± 0.062 | 1.03 ± 0.015 | 1.03 ± 0.03 | 0.944 ± 0.012 | 0.929 ± 0.022 | 0.808 ± 0.03 | 0.648 ± 0.021 | 0.441 ± 0.024 | – | – | – | – | – | – | – | – | – | – | – |
| C=CC(=O)N1CCC[C@@H](n2nc(-c3ccc(Oc4ccccc4)cc3)c3c(N)ncnc32)C1 [Ibrutinib] | 1.03 ± 0.041 | 1.04 ± 0.028 | 1 ± 0.032 | 1.013 ± 0.0014 | 0.947 ± 0.03 | 0.945 ± 0.011 | 0.854 ± 0.05 | 0.821 ± 0.012 | 0.746 ± 0.043 | 0.647 ± 0.014 | 0.412 ± 0.021 | – | – | – | – | – | – | – | – | – | – | – |
| O=C(Cc1ccc(-c2ccc(OCCN3CCOCC3)cc2)cn1)NCc1ccccc1 [KX2-391] | 1.06 ± 0.023 | 1.09 ± 0.031 | 1.02 ± 0.014 | 1.01 ± 0.035 | 0.962 ± 0.01 | 0.952 ± 0.011 | 0.607 ± 0.037 | 0.446 ± 0.024 | 0.425 ± 0.018 | 0.462 ± 0.014 | 0.458 ± 0.019 | – | – | – | – | – | – | – | – | – | – | – |
| CC(=O)Nc1cccc(-n2c(=O)n(C3CC3)c(=O)c3c(Nc4ccc(I)cc4F)n(C)c(=O)c(C)c32)c1 [Trametinib] | 1.02 ± 0.025 | 1.01 ± 0.034 | 0.942 ± 0.024 | 0.862 ± 0.014 | 0.745 ± 0.014 | 0.69 ± 0.031 | 0.642 ± 0.029 | 0.613 ± 0.012 | 0.571 ± 0.025 | 0.5524 ± 0.0038 | 0.509 ± 0.019 | – | – | – | – | – | – | – | – | – | – | – |
| COc1cc2nccc(Oc3ccc(NC(=O)Nc4cc(C)on4)c(Cl)c3)c2cc1OC [Tivozanib] | 0.97 ± 0.029 | 0.983 ± 0.036 | 0.965 ± 0.044 | 0.961 ± 0.064 | 1.01 ± 0.033 | 0.988 ± 0.028 | 1.01 ± 0.021 | 1.04 ± 0.021 | 1.05 ± 0.054 | 0.8973 ± 0.0033 | 0.582 ± 0.0097 | – | – | – | – | – | – | – | – | – | – | – |
| COc1cc2c(cc1O)CCN[C@]21CS[C@@H]2c3c(OC(C)=O)c(C)c4c(c3[C@H](COC1=O)N1[C@@H]2[C@H]2c3c(cc(C)c(OC)c3O)C[C@@H]([C@@H]1O)N2C)OCO4 [Trabectedin] | – | – | – | – | – | – | – | – | – | – | – | 1.09 ± 0.017 | 1.09 ± 0.027 | 1.06 ± 0.03 | 1.04 ± 0.013 | 1.04 ± 0.03 | 0.92 ± 0.018 | 0.0356 ± 0.003 | 0.229 ± 0.0077 | 0.186 ± 0.015 | 1.1 ± 0.027 | 1.1 ± 0.012 |
| CNC(=O)c1cc(Oc2ccc(NC(=O)Nc3ccc(Cl)c(C(F)(F)F)c3)c(F)c2)ccn1 [Regorafenib] | 1.11 ± 0.029 | 1.05 ± 0.05 | 1.07 ± 0.017 | 1.08 ± 0.021 | 1.04 ± 0.096 | 1.01 ± 0.043 | 1.08 ± 0.044 | 0.996 ± 0.07 | 0.978 ± 0.047 | 0.919 ± 0.036 | 0.555 ± 0.02 | – | – | – | – | – | – | – | – | – | – | – |
| C[C@@H]1CCN(C(=O)CC#N)C[C@@H]1N(C)c1ncnc2[nH]ccc12 [Tofacitinib] | 1.08 ± 0.025 | 1.07 ± 0.06 | 1.03 ± 0.036 | 1.04 ± 0.027 | 0.986 ± 0.039 | 1.02 ± 0.031 | 0.989 ± 0.033 | 1.01 ± 0.034 | 0.998 ± 0.054 | 1 ± 0.022 | 0.884 ± 0.035 | – | – | – | – | – | – | – | – | – | – | – |
| COc1cc2c(Oc3ccc4[nH]c(C)cc4c3F)ncnc2cc1OCCCN1CCCC1 [Cediranib] | 0.971 ± 0.026 | 0.993 ± 0.025 | 1.004 ± 0.0039 | 0.999 ± 0.024 | 0.954 ± 0.011 | 0.949 ± 0.016 | 0.908 ± 0.013 | 0.848 ± 0.035 | 0.79 ± 0.034 | 0.751 ± 0.11 | 0.0589 ± 0.0064 | – | – | – | – | – | – | – | – | – | – | – |
| CC[C@H](Nc1ncnc2[nH]cnc12)c1nc2cccc(F)c2c(=O)n1-c1ccccc1 [Idelalisib] | 1.06 ± 0.038 | 1.05 ± 0.053 | 1.04 ± 0.048 | 1.05 ± 0.02 | 1.01 ± 0.043 | 0.969 ± 0.016 | 0.952 ± 0.045 | 0.931 ± 0.043 | 0.831 ± 0.042 | 0.752 ± 0.011 | 0.573 ± 0.027 | – | – | – | – | – | – | – | – | – | – | – |
| Cc1cc(Nc2ncnc3ccc(NC4=NC(C)(C)CO4)cc23)ccc1Oc1ccn2ncnc2c1 [Tucatinib] | 1.06 ± 0.053 | 1.04 ± 0.03 | 1.06 ± 0.03 | 1.04 ± 0.043 | 0.989 ± 0.045 | 0.931 ± 0.026 | 0.936 ± 0.031 | 0.895 ± 0.026 | 0.855 ± 0.053 | 0.897 ± 0.064 | 0.936 ± 0.0098 | – | – | – | – | – | – | – | – | – | – | – |
| Cn1cc(-c2cc3c(N4CCN(c5ncc([C@@](C)(N)c6ccc(F)cc6)cn5)CC4)ncnn3c2)cn1 [Avapritinib] | 0.96 ± 0.072 | 0.905 ± 0.043 | 0.894 ± 0.057 | 0.92 ± 0.012 | 0.894 ± 0.04 | 0.883 ± 0.051 | 0.871 ± 0.036 | 0.819 ± 0.04 | 0.819 ± 0.02 | 0.776 ± 0.03 | 0.715 ± 0.042 | – | – | – | – | – | – | – | – | – | – | – |
| CC(C)(C)c1cc(NC(=O)Nc2ccc(-c3cn4c(n3)sc3cc(OCCN5CCOCC5)ccc34)cc2)no1 [Quizartinib] | 1.02 ± 0.03 | 1.02 ± 0.047 | 1.02 ± 0.057 | 1.03 ± 0.047 | 1.01 ± 0.059 | 1.03 ± 0.043 | 1.02 ± 0.046 | 1.01 ± 0.031 | 0.965 ± 0.044 | 0.874 ± 0.02 | 0.981 ± 0.035 | – | – | – | – | – | – | – | – | – | – | – |
| O=C(Nc1cnn2ccc(N3CCC[C@@H]3c3cc(F)ccc3F)nc12)N1CC[C@H](O)C1 [Larotrectinib] | 1.07 ± 0.043 | 1.07 ± 0.027 | 1 ± 0.033 | 1.01 ± 0.057 | 1.03 ± 0.034 | 0.954 ± 0.026 | 0.99 ± 0.025 | 0.9488 ± 0.0041 | 0.984 ± 0.053 | 0.979 ± 0.025 | 0.921 ± 0.047 | – | – | – | – | – | – | – | – | – | – | – |
| Cc1nc(-c2cn3c(n2)-c2ccc(-c4cnn(C(C)(C)C(N)=O)c4)cc2OCC3)n(C(C)C)n1 [Taselisib] | 0.925 ± 0.035 | 0.933 ± 0.02 | 0.953 ± 0.025 | 0.971 ± 0.013 | 0.884 ± 0.043 | 0.856 ± 0.031 | 0.785 ± 0.03 | 0.762 ± 0.014 | 0.69 ± 0.021 | 0.599 ± 0.021 | 0.469 ± 0.0077 | – | – | – | – | – | – | – | – | – | – | – |
| Cc1nc(NC(=O)N2CCC[C@H]2C(N)=O)sc1-c1ccnc(C(C)(C)C(F)(F)F)c1 [Alpelisib] | 1.02 ± 0.034 | 1 ± 0.024 | 1.01 ± 0.011 | 0.973 ± 0.028 | 0.977 ± 0.072 | 0.902 ± 0.027 | 0.9309 ± 0.0035 | 0.903 ± 0.039 | 0.819 ± 0.061 | 0.731 ± 0.024 | 0.594 ± 0.037 | – | – | – | – | – | – | – | – | – | – | – |
| Cn1cnc2c(F)c(Nc3ccc(Br)cc3F)c(C(=O)NOCCO)cc21 [Binimetinib] | 1.06 ± 0.021 | 1.08 ± 0.032 | 1.04 ± 0.019 | 0.993 ± 0.018 | 0.981 ± 0.038 | 0.889 ± 0.065 | 0.841 ± 0.092 | 0.832 ± 0.019 | 0.806 ± 0.019 | 0.739 ± 0.026 | 0.661 ± 0.013 | – | – | – | – | – | – | – | – | – | – | – |
| CCc1cc2c(cc1N1CCC(N3CCOCC3)CC1)C(C)(C)c1[nH]c3cc(C#N)ccc3c1C2=O [Alectinib] | 0.987 ± 0.02 | 0.993 ± 0.027 | 1.01 ± 0.019 | 1.002 ± 0.0077 | 0.996 ± 0.038 | 1.04 ± 0.012 | 0.988 ± 0.057 | 1.07 ± 0.032 | 0.9953 ± 0.0051 | 1.06 ± 0.058 | 1.14 ± 0.016 | – | – | – | – | – | – | – | – | – | – | – |
